From CN114306299A, “贝利司他在制备缓解和/或治疗缺血性脑卒中药物中的应用” (Institute of Materia Medica of CAMS and PUMC, priority 2020, dated 2022)

What was measured:
MCAO/R rats (MCAO/R大鼠) [1] = assay: TTC staining of cerebral infarct volume in MCAO/R rats, 24 h after reperfusion (1.2); assay type: in vivo, rat; conditions: i.p. at reperfusion; for cerebral infarct volume vs. model group: **P<0.01 vs. model group, n=7~11
MCAO/R rats (MCAO/R大鼠) [2] = assay: Neurological function score (mNSS) in MCAO/R rats 24 h after reperfusion (1.3); assay type: in vivo, rat; conditions: i.p. at reperfusion; for mNSS score vs. model group: **P<0.01 vs. model group, n=7~11
MCAO/R rats (MCAO/R大鼠) [3] = assay: Survival rate of MCAO/R rats, 14-day dosing (2.2); assay type: in vivo, rat; conditions: treated groups (10, 30, 50 mg/kg); dosing from 24 h after reperfusion, once daily for 14 days; n=9~18; compared with model group (low survival)
[4] = test system: histone deacetylase, HDAC (组蛋白去乙酰化酶, HDAC); conditions: in vitro; cited from earlier work
[5] = test system: certain transformed cells (某些转化细胞); conditions: in vitro, nanomolar concentration (<250nM); cited from earlier work
tumor cells (肿瘤细胞) = conditions: cited from earlier work
[6] = treated subjects in clinical studies; cited from earlier work
MCAO/R rats (MCAO/R大鼠) [7] = assay: Foot-fault test in MCAO/R rats, days 1, 3, 7, 14 (2.4); conditions: from day 7; treated groups (10, 30, 50 mg/kg), once daily for 14 days from 24 h after reperfusion; *P<0.05, **P<0.01 vs. model group; n=6~9
MCAO/R rats (MCAO/R大鼠) [8] = assay: Recovery of neurological function (mNSS) in MCAO/R rats, days 1, 3, 7, 14 (2.3)

O=C(/C=C/c1cccc(S(=O)(=O)Nc2ccccc2)c1)NO [贝利司他]
infarct volume vs. model group (MCAO/R rats (MCAO/R大鼠) [1]; dose group not named): 能够减少MCAO/R大鼠的梗死体积
cerebral infarct volume vs. model group (MCAO/R rats (MCAO/R大鼠) [1]; high dose 50 mg/kg): 显著降低
cerebral infarct volume vs. model group (MCAO/R rats (MCAO/R大鼠) [1]; medium dose 30 mg/kg): 显著降低
neurological motor function score vs. model group (MCAO/R rats (MCAO/R大鼠) [2]; dose group not named): 显著降低
mNSS score vs. model group (MCAO/R rats (MCAO/R大鼠) [2]; high dose 50 mg/kg): 显著低于模型组
mNSS score vs. model group (MCAO/R rats (MCAO/R大鼠) [2]; medium dose 30 mg/kg): 显著低于模型组
survival rate (MCAO/R rats (MCAO/R大鼠) [3]): 明显增高
concentration at which HDAC activity is inhibited [4]: < 250 nM
accumulation of acetylated histones and other proteins [5]: 可致乙酰化组蛋白及其他蛋白积聚
cell cycle arrest or apoptosis of certain transformed cells [5]: 诱导细胞周期停滞或某些转化细胞凋亡
cytotoxicity to tumor cells compared with normal cells (tumor cells (肿瘤细胞)): 强于正常细胞
most common side effects [6]: 恶心、呕吐、乏力、发热和贫血
foot-fault rate vs. model group (MCAO/R rats (MCAO/R大鼠) [7]): 明显降低
mNSS score vs. model group (MCAO/R rats (MCAO/R大鼠) [8]; from day 3, treated groups (10, 30, 50 mg/kg), once daily for 14 days from 24 h after reperfusion, *P<0.05, **P<0.01 vs. model group, n=6~9): 显著低于模型组
neurological motor function (MCAO/R rats (MCAO/R大鼠) [8]; treated groups, with increasing time of administration (once daily for 14 days)): 神经运动功能恢复
